# Test results reported in patent US11040981B2, “Pyrrolotriazine compounds and methods of inhibiting TAM kinases” (Syros Pharmaceuticals, Inc., priority 2017, dated 2021).
# Assays:
# TYRO3 = target: T1, TYRO3 (Homo sapiens, UniProt Q06418); experiment: TR-FRET kinase activity assay, TYRO3; format: biochemical; details: ATP at Km, 60 minutes
# T1 sequence (Q06418 41-890): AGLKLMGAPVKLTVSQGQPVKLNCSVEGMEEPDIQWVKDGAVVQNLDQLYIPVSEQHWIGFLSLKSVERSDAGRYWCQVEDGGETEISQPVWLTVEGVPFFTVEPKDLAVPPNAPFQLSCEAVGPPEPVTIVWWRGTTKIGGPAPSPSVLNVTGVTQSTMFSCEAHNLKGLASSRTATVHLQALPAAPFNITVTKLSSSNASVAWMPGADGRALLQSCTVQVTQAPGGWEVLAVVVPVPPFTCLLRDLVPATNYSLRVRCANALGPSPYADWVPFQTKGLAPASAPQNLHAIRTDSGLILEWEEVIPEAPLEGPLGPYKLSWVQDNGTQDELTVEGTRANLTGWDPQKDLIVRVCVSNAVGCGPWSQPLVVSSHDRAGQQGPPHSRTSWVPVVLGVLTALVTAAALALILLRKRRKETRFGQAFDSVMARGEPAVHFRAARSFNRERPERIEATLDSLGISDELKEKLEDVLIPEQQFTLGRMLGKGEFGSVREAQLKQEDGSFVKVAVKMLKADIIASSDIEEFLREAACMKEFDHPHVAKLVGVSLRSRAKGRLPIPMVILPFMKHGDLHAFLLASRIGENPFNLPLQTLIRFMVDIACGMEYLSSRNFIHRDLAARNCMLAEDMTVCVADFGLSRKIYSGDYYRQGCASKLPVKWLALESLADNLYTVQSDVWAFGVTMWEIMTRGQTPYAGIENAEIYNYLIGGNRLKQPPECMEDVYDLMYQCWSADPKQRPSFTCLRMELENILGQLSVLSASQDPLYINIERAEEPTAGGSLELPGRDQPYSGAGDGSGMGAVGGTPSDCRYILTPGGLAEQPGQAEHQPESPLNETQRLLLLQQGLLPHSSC
# In short: (§1)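 Inhibition is measured as loss of phospho-peptide formation: kinase, fluorescent tyrosine peptide and compound are combined, ATP is added at Km, and the reaction proceeds 60 min at RT in pH 7.5 HEPES buffer. An EDTA stop and Eu-labelled phospho-specific antibody allow TR-FRET detection for IC50 fitting.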
# FLT3 = target: T2, FLT3 (Homo sapiens, UniProt P36888); experiment: TR-FRET kinase activity assay, FLT3; format: biochemical; details: ATP at Km, 60 minutes
# T2 sequence (P36888 27-993): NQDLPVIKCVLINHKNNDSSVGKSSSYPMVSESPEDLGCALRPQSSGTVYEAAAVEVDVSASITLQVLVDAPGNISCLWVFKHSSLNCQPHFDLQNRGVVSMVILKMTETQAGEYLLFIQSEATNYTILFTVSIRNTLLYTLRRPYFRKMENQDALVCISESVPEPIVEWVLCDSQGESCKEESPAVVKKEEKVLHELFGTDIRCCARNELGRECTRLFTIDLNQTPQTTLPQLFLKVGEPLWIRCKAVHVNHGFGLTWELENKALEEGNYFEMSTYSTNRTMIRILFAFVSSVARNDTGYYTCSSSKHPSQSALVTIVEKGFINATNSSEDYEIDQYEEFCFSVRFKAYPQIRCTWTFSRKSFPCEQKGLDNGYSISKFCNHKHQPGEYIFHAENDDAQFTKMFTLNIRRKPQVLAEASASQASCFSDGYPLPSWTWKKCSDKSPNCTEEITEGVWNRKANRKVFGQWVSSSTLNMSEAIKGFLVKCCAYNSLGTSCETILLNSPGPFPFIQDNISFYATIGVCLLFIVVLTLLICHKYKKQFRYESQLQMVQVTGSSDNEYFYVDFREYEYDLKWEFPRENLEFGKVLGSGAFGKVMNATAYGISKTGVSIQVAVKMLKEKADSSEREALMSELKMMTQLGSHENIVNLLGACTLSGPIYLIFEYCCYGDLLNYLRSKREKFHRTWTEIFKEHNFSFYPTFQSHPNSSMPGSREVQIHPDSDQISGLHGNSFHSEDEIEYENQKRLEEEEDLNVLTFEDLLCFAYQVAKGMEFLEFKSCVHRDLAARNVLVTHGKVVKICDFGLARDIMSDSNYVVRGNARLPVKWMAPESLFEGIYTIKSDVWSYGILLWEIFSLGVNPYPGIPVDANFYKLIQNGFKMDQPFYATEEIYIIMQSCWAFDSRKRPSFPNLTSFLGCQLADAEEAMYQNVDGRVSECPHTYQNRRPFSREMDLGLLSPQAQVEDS
# In short: as §1
IC50 (TYRO3) [nM],IC50 (FLT3) [nM],SMILES
≤ 100,100 to 1000,C[C@@H](COC(F)F)Nc1ncc2c(-c3cnn(C(C)(C)C(=O)N4CCN(C)CC4)c3)cc([C@H]3CC[C@H](O)CC3)n2n1 [Compound 593]
≤ 100,1000 to 10000,COC[C@H](C)Nc1ncc2c(-c3cnn(C(C)(C)C(=O)N4CCOCC4)c3)cc([C@@H]3CCc4cn[nH]c4C3)n2n1 [Compound 594]
